From patent US7101878B1 (Agouron Pharmaceuticals, Inc., priority 1998, dated 2006)
Where two headings read alike, the source gives them in different places.

What was measured:
human GnRH receptor = target: T1, human GnRH receptor (Homo sapiens, UniProt P30968); test: Radioligand binding, 125I-GnRH-A displacement, membranes of HEK 293 cells with human GnRH receptor
T1 construct: expressed in transfected cells; host or cells: HEK 293 (hGnRH-R/293, from Dr. Stuart Sealfon)
T1 sequence (P30968 1-328): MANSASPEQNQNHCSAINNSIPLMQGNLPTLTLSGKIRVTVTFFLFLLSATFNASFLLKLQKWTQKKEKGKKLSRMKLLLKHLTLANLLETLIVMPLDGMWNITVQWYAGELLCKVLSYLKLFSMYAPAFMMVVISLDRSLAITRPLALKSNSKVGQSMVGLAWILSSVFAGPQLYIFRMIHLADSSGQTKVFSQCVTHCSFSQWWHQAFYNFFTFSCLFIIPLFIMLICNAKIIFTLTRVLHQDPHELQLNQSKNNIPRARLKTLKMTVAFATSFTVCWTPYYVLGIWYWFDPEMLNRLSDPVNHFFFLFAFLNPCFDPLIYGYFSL
Method in brief: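 Bound tracer was separated by filtration through polyethyleneimine-soaked GF/C filters and counted by liquid scintillation. IC50 from curve fitting; other species were tested under the same conditions.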

mouse GnRH receptor = target: T2, mouse GnRH receptor (Mus musculus, UniProt Q01776); test: Radioligand binding, 125I-GnRH-A, 293 cells expressing mouse GnRH receptors
T2 construct: expressed in transfected cells; host or cells: 293 cells
T2 sequence (Q01776 1-327): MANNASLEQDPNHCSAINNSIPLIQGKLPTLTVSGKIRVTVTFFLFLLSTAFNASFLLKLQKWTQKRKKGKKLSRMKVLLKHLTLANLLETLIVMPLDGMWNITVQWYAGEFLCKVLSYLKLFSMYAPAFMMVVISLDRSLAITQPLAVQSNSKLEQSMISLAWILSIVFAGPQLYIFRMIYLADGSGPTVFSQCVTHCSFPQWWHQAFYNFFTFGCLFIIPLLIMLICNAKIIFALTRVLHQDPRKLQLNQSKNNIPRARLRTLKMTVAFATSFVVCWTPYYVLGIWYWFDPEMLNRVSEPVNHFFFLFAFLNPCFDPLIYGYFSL
Method in brief: (§1)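 Bound label captured on 0.1% polyethyleneimine-treated GF/C filters, washed three times with PBS, counted. IC50 derived; identical set-up for every species.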

bovine GnRH receptor = target: T3, bovine GnRH receptor (Bos taurus, UniProt P32236); test: Radioligand binding, 125I-GnRH-A, bovine pituitary membranes
T3 construct: membranes were prepared from bovine pituitary; from tissue; host or cells: bovine pituitary
T3 sequence (P32236 1-328): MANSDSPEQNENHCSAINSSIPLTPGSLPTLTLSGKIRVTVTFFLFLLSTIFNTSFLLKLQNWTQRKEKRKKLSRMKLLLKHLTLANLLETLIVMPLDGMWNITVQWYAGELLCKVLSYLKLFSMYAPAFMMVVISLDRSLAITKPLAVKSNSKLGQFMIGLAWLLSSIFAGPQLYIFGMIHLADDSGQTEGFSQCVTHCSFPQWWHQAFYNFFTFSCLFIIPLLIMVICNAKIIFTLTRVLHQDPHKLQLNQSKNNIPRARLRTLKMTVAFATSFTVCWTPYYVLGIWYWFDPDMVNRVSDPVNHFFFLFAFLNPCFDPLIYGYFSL
Protocol: All compounds were diluted in 1% DMSO (final assay concentration) in binding assay buffer. […] Reactions were terminated by rapid filtration onto 96-well Packard GF/C filters soaked in 0.1% polyethyleneimine. Filters were washed three times with PBS buffer, dried and counted on a Packard Topcount by liquid scintillation counting.
Assay conditions were identical for assessing compound activities at other species. […] IC50 values for control peptides and test compounds were calculated utilizing GraphPad Prism™ software.
The reaction mixture was vortexed and incubated for 1 min at room temperature. After one min, the mixture was vortexed and allowed to incubate for an additional minute. 2 ml of 0.5 M acetic acid/1% BSA was added to the reaction tube and the mixture was added to a C18 Sep-Pak cartridge. The cartridge was washed with subsequent washes of 5 ml H2O and 5 ml 0.5M acetic acid and then eluted with 5×1 ml of 60% CH3CN/40% 0.5M acetic acid. The eluate was diluted with 3× volume of HPLC buffer A (0.1% TFA in H2O) and loaded onto a C18 column. […] The radioactive fractions (750 ed/fraction) are collected into clean polypropylene tubes containing 100 μl of 10% BSA. Fractions were assessed for biological activity by radioligand binding.

rat GnRH receptor = target: T4, rat GnRH receptor (Rattus norvegicus, UniProt P30969); test: Radioligand binding, 125I-GnRH-A, rat pituitary membranes; parameters: membranes were prepared from rat pituitary; from tissue; host or cells: rat pituitary
T4 sequence (P30969 1-327): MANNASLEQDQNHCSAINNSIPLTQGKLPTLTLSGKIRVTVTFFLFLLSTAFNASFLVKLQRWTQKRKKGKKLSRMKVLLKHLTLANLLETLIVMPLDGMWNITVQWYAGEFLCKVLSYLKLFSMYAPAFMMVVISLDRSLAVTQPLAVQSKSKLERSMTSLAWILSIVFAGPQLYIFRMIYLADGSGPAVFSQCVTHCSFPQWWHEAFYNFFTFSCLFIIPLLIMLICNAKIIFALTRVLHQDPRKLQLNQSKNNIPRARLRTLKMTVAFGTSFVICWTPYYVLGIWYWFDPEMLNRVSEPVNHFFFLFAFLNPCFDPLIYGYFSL
Method in brief: as §1

[1] = Metabolism rate, pmol/min/mg at 1 μM, human; assay type: in vitro ADME; settings: 1 μM compound
[2] = Metabolism rate, pmol/min/mg at 1 μM, rat male; assay type: in vitro ADME; settings: 1 μM compound
[3] = Pharmacokinetic studies / bioavailability in rats; assay type: in vivo, rat; settings: rat male
[4] = means ± SE of at least three experiments performed in duplicate, read-out: Human IC50
[5] = means ± SE of at least three experiments performed in duplicate, read-out: Mouse IC50
[6] = means ± SE of at least three experiments performed in duplicate, read-out: Bovine IC50
[7] = means ± SE of at least three experiments performed in duplicate, read-out: Rat IC50
[8] = male, rat, plasma, po, 20 mg/kg, p.o. 20 mg/kg, vehicle per footnote (DMSO/cremophor/saline)

Row | Structure (SMILES) | IC50 (human GnRH receptor; read-out: hGnRH IC50) [nM] | IC50 (mouse GnRH receptor; read-out: mGnRH IC50) [nM] | IC50 (bovine GnRH receptor; read-out: bGnRH IC50) [nM] | IC50 (rat GnRH receptor; read-out: rGnRH IC50) [nM] | Human pmol/min/mg 1 μM [1] [pmol/min/mg] | Rat male pmol/min/mg 1 μM [2] [pmol/min/mg] | further results
1 | COc1cccc(CNC(=O)c2ccc(Cc3cc4c(cc3C)C(C)(C)CCC4(C)C)o2)c1OC [Compound 15] | 290 | – | – | – | – | – | IC50 (human GnRH receptor; [4]): 100 ± 17 nM; IC50 (mouse GnRH receptor; [5]): 220 ± 50 nM; IC50 (bovine GnRH receptor; [6]): 1000 ± 240 nM; IC50 (rat GnRH receptor; [7]): 70 ± 16 nM
2 | Cc1cc2c(cc1Cc1ccc(C(=O)NCC3CCCC(CNC(=N)N)C3)o1)C(C)(C)CCC2(C)C (stereo not shown) [Compound 22] | 540 | 1100 | 1710 | 310 | – | – | –
3 | Cc1cc2c(cc1Cc1ccc(C(=O)NCc3cccc(CNC(=N)N)c3)o1)C(C)(C)CCC2(C)C [Compound 24] | 550 | 560 | 760 | 150 | – | – | –
4 | Cc1cc2c(cc1Cc1ccc(C(=O)NCc3ccc(CNC(=N)N)cc3)o1)C(C)(C)CCC2(C)C [Compound 25] | 410 | 950 | 940 | 260 | – | – | –
5 | Cc1cc2c(cc1Cc1ccc(C(=O)NCc3cccc(Cl)c3)o1)C(C)(C)CCC2(C)C [Compound 39] | 190 | 830 | 2340 | 220 | – | – | –
6 | Cc1cc2c(cc1Cc1ccc(C(=O)NCc3cccnc3)o1)C(C)(C)CCC2(C)C [Compound 43] | 320 | 630 | 4000 | 330 | – | – | IC50 (human GnRH receptor; second value marked * (mostly in parentheses), asterisk not explained, read-out: hGnRH IC50, value marked *): 130 nM
7 | Cc1ccccc1CNC(=O)c1ccc(Cc2cc3c(cc2C)C(C)(C)CCC3(C)C)o1 [Compound 50] | 230 | 370 | 1520 | 150 | – | – | –
8 | Cc1cc2c(cc1Cc1ccc(C(=O)NCc3ccc(F)cc3F)o1)C(C)(C)CCC2(C)C [Compound 52] | 280 | 660 | 2900 | 270 | – | – | –
9 | Cc1cc2c(cc1Cc1ccc(C(=O)NCc3cccc(F)c3)o1)C(C)(C)CCC2(C)C [Compound 53] | 250 | 630 | 2930 | 270 | – | – | –
10 | Cc1cc2c(cc1Cc1ccc(C(=O)Nc3cccc4ncccc34)o1)C(C)(C)CCC2(C)C [Compound 64] | 125 | 34 | 380 | 60 | – | – | –
11 | Cc1cc2c(cc1Cc1ccc(C(=O)NCc3cccc(CNc4nccc(N5CCOCC5)n4)c3)o1)C(C)(C)CCC2(C)C [Compound 150] | 80 | 13 | – | 8 | 655 | 3334 | –
12 | Cc1cc2c(cc1Cc1ccc(C(=O)NCc3cccc(CNc4ncc(C)c(NCC5CCCO5)n4)c3)o1)C(C)(C)CCC2(C)C (stereo not shown) [Compound 151] | 65 | 5.2 | – | 7.2 | 225 | 3043 | –
13 | COCCNc1nccc(NCc2cccc(CNC(=O)c3ccc(Cc4cc5c(cc4C)C(C)(C)CCC5(C)C)o3)c2)n1 [Compound 154] | 150 | 36 | – | 22 | 241 | 4481 | –
14 | Cc1cc2c(cc1Cc1ccc(C(=O)NC[C@H]3CC[C@H](C(N)=O)CC3)o1)C(C)(C)CCC2(C)C [Compound 156] | 24 | 400 | – | 270 | 867 | 2995 | –
15 | COc1cc(CO)cc(OC)c1NC(=O)c1ccc(Cc2cc3c(cc2C)C(C)(C)CCC3(C)C)o1 [Compound 159] | 45 | 16 | – | 5 | 793 | 6642 | –
16 | COc1cc(OC)c(NC(=O)c2ccc(Cc3c(C)cc(C)cc3C)o2)c(OC)c1 [Compound 168] | 230 | 130 | – | 130 | 407 | 1087 | half-life ([3]; male, rat, plasma, iv, 10 mg/kg): 1.8 h; Cmax [3, 8]: 300 nM; Tmax [3, 8]: 1 h; Fp.o. ([3]; p.o. 20 mg/kg, vehicle per footnote (DMSO/cremophor/saline)): 1% (20 mg/kg)^6
17 | Cc1cc2c(cc1Cc1ccc(C(=O)NCc3cccc(CNc4ccnc(NC[C@@H]5CCCO5)n4)c3)o1)C(C)(C)CCC2(C)C [Compound 176] | – | 4 | – | 3 | 273 | 2341 | T1/2 [3]: 2.8 h
18 | CCNC(=O)[C@@H]1CCCN1C(=O)[C@H](CCCNC(=N)N)NC(=O)[C@H](CC(C)C)NC(=O)[C@@H](C)NC(=O)[C@H](Cc1ccc(O)cc1)NC(=O)[C@H](CO)NC(=O)[C@H](Cc1c[nH]c2ccccc12)NC(=O)[C@H](Cc1c[nH]cn1)NC(=O)[C@@H]1CCC(=O)N1 [GnRH-A, [des-Gly^10,D-Ala^6]GnRH ethylamide, reference compound] | – | – | – | – | – | – | IC50 (human GnRH receptor; [4]): 0.34 ± 0.06 nM; IC50 (mouse GnRH receptor; [5]): 0.22 ± 0.03 nM; IC50 (bovine GnRH receptor; [6]): 0.3 ± 0.05 nM; IC50 (rat GnRH receptor; [7]): 0.49 ± 0.1 nM
